target: T1, Serine/threonine-protein kinase ULK1 (Homo sapiens, UniProt O75385); test: ULK1 inhibition assay: Gamma-32P assays to measure ULK1 kinase activity were performed as previously described. Briefly, Flag ULK1 was transfected into HEK293T cells and 20 hours later treated as indicated. The immmunoprecipitate was washed in IP buffer 3 times, and washed in kinase buffer (25 mM MOPS, pH 7.5, 1 mM EGTA, 0.1 mM Na3VO4, 15 mM MgCl2,). Hot and cold ATP were added at a 100 μM final concentration. As substrates, GST or the recombinant protein GST-Atg101 purified from E. coli were used at 1 μg for each reaction. Reactions were boiled, run out on SDS page gel. The gel was dried, and imaged using PhosphoImager software. For cold assays to asses ULK1, Flag ULK1 which was transiently overexpressed and immunoprecipited from HEK293T cells. Reactions were then run out on SDS page gel, transferred to PVDF membrane and blotted for total levelsFluorescence MicroscopyVps34flox/flox MEFs were reconstituted with Flag-VPS34 and either p40FX or GFP-DFCP1. 48 hours post infection with adenovirus expressing Cre recombinase (MOI of 100), cells were plated on glass coverslips at a density of 3×10^5 cells per well in 6-well tissue culture plates. 18 h later, cells were fixed in 4% PFA in PBS for 10 minutes and permeabilized in 0.2% Triton in PBS for 10 minutes. The following primary antibodies were used: mouse anti-Myc epitope and LC3B XP antibody (2276 and 3868 respectively, Cell Signaling Technologies). Secondary antibodies were anti-rabbit Alexa488 and anti-mouse Alexa594 (Molecular Probes, 1:1000. Cells were then fixed and counter stained with DAPI. Coverslips were mounted in FluoromountG (SouthernBiothech). Images were acquired on a Zeiss Axioplan2 epifluorescence microscope coupled to the Openlab software. Confocal images of mitotracker were taken on Zeiss LSM 710 laser scanning confocal microscope. 10 random fields per condition were acquired using the 100× objective and representative images shown. Glass coverslips were mounted directly on plate with FluoromountG and images taken on Zeiss Axioplan2 epifluorescence microscope.
T1 sequence (O75385 whole entry): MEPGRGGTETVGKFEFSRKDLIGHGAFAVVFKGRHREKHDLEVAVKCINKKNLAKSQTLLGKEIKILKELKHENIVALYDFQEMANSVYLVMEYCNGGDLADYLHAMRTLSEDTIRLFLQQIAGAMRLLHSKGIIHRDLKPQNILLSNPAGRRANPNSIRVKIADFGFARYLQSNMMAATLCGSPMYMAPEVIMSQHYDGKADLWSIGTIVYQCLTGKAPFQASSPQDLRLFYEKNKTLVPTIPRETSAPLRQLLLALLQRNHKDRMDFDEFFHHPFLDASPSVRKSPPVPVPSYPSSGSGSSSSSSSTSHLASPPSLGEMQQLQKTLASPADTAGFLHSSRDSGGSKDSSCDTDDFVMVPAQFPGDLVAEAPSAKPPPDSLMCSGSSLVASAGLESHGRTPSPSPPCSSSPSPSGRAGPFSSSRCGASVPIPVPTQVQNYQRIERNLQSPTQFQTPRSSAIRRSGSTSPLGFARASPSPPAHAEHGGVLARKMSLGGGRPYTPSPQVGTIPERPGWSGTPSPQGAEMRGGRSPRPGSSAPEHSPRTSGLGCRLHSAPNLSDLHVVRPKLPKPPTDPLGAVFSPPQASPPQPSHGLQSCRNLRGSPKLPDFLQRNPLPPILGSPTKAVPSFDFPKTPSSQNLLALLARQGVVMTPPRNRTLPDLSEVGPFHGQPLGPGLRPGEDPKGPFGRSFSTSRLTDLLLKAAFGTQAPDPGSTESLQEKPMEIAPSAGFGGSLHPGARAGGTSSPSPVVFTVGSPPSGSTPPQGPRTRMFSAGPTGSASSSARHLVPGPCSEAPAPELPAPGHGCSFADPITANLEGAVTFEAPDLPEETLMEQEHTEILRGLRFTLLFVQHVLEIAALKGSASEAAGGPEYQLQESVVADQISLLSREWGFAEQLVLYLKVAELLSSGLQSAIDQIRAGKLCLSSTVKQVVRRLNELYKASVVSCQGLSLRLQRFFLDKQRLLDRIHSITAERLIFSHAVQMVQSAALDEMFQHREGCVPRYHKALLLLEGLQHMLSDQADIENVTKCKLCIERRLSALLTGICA

Row | Compound | IC50
1 | CCN1CCOc2cc(Nc3ncc(C(F)(F)F)c(NC4CC4)n3)cnc21 | < 200 nM
2 | COc1ccc(Nc2ncc(C(F)(F)F)c(NC3CC3)n2)cc1OC | < 200 nM
3 | COc1cc(Nc2ncc(Br)c(-n3nnc4ccccc43)n2)cc(OC)c1OC | > 2000 nM
4 | COc1cc(Nc2ncc(Cl)c(Nc3ccccc3CO)n2)cc(OC)c1OC | > 2000 nM
5 | COc1cc(Nc2ncc(Br)c(Oc3cccc4cc[nH]c34)n2)cc(OC)c1OC | > 2000 nM
6 | CNC(=O)c1ccc(OC)cc1Oc1ncc(Br)c(Nc2cc(OC)c(OC)c(OC)c2)n1 | > 2000 nM
7 | Nc1ccccc1Oc1nc(Nc2ccc3c(c2)OCO3)ncc1Br | < 200 nM
8 | O=C1CCc2cc(Nc3ncc(C(F)(F)F)c(Nc4ccc5c(c4)OCO5)n3)ccc2N1 | < 200 nM
9 | COc1cc(Nc2ncc(Br)c(Oc3ccccc3NC(=O)C(F)(F)F)n2)cc(OC)c1OC | < 200 nM
10 | COc1cc(Nc2nc(Oc3cccc4c3N(C(C)=O)CCC4)ncc2Br)cc(O)c1OC | < 200 nM
11 | COc1cc(Nc2ncc(Br)c(Oc3cccc4c3CCCC4)n2)cc(OC)c1OC | > 2000 nM
12 | NC(=O)c1cccc(Nc2ncc(C(F)(F)F)c(Nc3ccc4c(c3)OCO4)n2)c1 | < 200 nM
13 | COc1cc(Nc2nc(Oc3cccc4cc[nH]c34)ncc2Br)cc(O)c1OC | > 2000 nM
14 | COc1ccc(Nc2ncc(C(F)(F)F)c(Nc3ccc4c(c3)OCO4)n2)cc1 | < 200 nM
15 | CNC(=O)c1ccc(OC)cc1Oc1nc(Nc2cc(O)c(OC)c(OC)c2)ncc1Br | > 2000 nM
16 | COc1cc(Nc2ncc(Br)c(Oc3ccccc3NS(C)(=O)=O)n2)cc(OC)c1OC | > 2000 nM
17 | COc1cc(Nc2ncc(Br)c(Oc3ccccc3[S+](C)[O-])n2)cc(OC)c1OC (configuration not stated) | > 2000 nM
18 | COCC(C)(CN(C)C)Nc1nc(Nc2ccc3c(c2)CCC(=O)N3)ncc1C(F)(F)F (configuration not stated) | > 2000 nM
19 | CNC(=O)Cc1ccccc1Oc1nc(Nc2cc(OC)c(OC)c(OC)c2)ncc1Br | > 2000 nM
20 | COc1cc(Nc2ncc(Br)c(Oc3cccc4ccncc34)n2)cc(OC)c1OC | > 2000 nM
21 | COc1cc(Nc2ncc(Br)c(Oc3cccc4cccnc34)n2)cc(OC)c1OC | > 2000 nM
22 | COc1cc(Nc2ncc(Br)c(Oc3ccccc3O)n2)cc(OC)c1OC | > 2000 nM
23 | CC(=O)NNc1nc(Nc2ccc3c(c2)CCC(=O)N3)ncc1C(F)(F)F | > 2000 nM
24 | CNC(=O)c1ccccc1COc1nc(Nc2cc(OC)c(OC)c(OC)c2)ncc1Br | > 2000 nM

Row | Compound | IC50
25 | CCN1CCOc2cc(Nc3nc(Nc4ccc5c(c4)CCC(=O)N5)ncc3Br)cnc21 | < 200 nM
26 | FC(F)(F)c1cnc(Nc2cccc(Cl)c2Cl)nc1Nc1ccc2c(c1)OCO2 | > 2000 nM
27 | Oc1nc(Nc2cnc3[nH]ccc3c2)ncc1C(F)(F)F | > 2000 nM
28 | COc1cc(Nc2ncc(Br)c(Oc3ccccc3C3=NC(C)(C)CO3)n2)cc(OC)c1OC | > 2000 nM
29 | FC(F)(F)c1cnc(Nc2ccc(-n3cccc3)cc2)nc1Nc1ccc2c(c1)OCO2 | < 200 nM
30 | FC(F)(F)c1cnc(Nc2cccc(Oc3ccccc3)c2)nc1Nc1ccc2c(c1)OCO2 | > 2000 nM
31 | CC(=O)Nc1ccccc1Oc1nc(Nc2ccc3c(c2)OCO3)ncc1Br | > 2000 nM
32 | OCc1ccccc1Nc1nc(Nc2cc(F)c(F)c(F)c2)ncc1Br | > 2000 nM
33 | O=C1CCc2cc(Nc3ncc(C(F)(F)F)c(NCCCNC(=O)C4CC4)n3)ccc2N1 | < 200 nM
34 | COc1cc(Nc2ncc(Br)c(Oc3cccc(O)c3[N+](=O)[O-])n2)cc(OC)c1OC | > 2000 nM
35 | COc1cc(Nc2ncc(C(F)(F)F)c(Oc3ccccc3N)n2)cc(OC)c1OC | < 200 nM
36 | CNC(=O)c1ccccc1Oc1nc(Nc2ccc3c(c2)CCC(=O)N3)ncc1Br | > 2000 nM
37 | FC(F)(F)c1cnc(Nc2ccc3c(c2)CCC3)nc1Nc1ccc2c(c1)OCO2 | < 200 nM
38 | O=c1[nH][nH]c(=O)c2cc(Nc3ncc(C(F)(F)F)c(NC4CC4)n3)ccc12 | < 200 nM
39 | O=C1CCc2cc(Nc3ncc(C(F)(F)F)c(Nc4ccccc4CO)n3)ccc2N1 | < 200 nM
40 | COc1cc(Nc2ncc(Br)c(Oc3cccc4c3N(C(C)=O)CCC4)n2)cc(OC)c1OC | > 2000 nM
41 | COc1cc(Nc2ncc(Br)c(Oc3ccccc3CN(C)C)n2)cc(OC)c1OC | > 2000 nM
42 | O=C(C1CC1)N1CCc2cc(Nc3ncc(C(F)(F)F)c(NC4CC4)n3)ccc2C1 | < 200 nM
43 | COc1cc(Nc2ncc(Br)c(Oc3ccccc3NC(=O)C(C)(C)C)n2)cc(OC)c1OC | > 2000 nM
44 | COc1cc(Nc2ncc(Br)c(Oc3cccc4[nH]nnc34)n2)cc(OC)c1OC | > 2000 nM
45 | COc1cc(Nc2ncc(Br)c(Oc3ccccc3CNC(C)=O)n2)cc(OC)c1OC | > 2000 nM
46 | COc1cc(Nc2nc(Oc3cccc4c3CCCC4)ncc2Br)cc(O)c1OC | > 2000 nM
47 | COc1cccc(Nc2nc(Nc3ccc(OC(F)(F)F)c(Cl)c3)ncc2C(F)(F)F)c1 | > 2000 nM

Source: ChEMBL document CHEMBL5726856, “ULK1 inhibitors and methods using same” (2019)
